≈ marks a conversion by molar mass, not a printed value.
Assays:
Format in all cases: functional
Human alphaherpesvirus 1 [1] = assay: Compound was tested for the antiviral activity against herpes simplex virus-1 (HSV-1) KOS strain
Human alphaherpesvirus 1 [2] = assay: Compound was tested for the antiviral activity against herpes simplex virus-1 thymidine kinase deficient (HSV-1 TK-) B2006 strain
Human alphaherpesvirus 1 [3] = assay: Compound was tested for the antiviral activity against herpes simplex virus-1 thymidine kinase deficient (HSV-1 TK-) VMW 1837 strain
Human alphaherpesvirus 2 = assay: Compound was tested for the antiviral activity against herpes simplex virus-2 (HSV-2) G strain
[4] = Minimum cytotoxic concentration required to cause a microscopically detectable alteration of normal cell morphology

Nc1nc2c(ncn2COCCO)c(=O)[nH]1 [ACYCLOVIR]
MIC (Human alphaherpesvirus 1 [1]): 0.02 µg/mL (≈ 0.0888 µM)
MIC (Human alphaherpesvirus 1 [2]): 80 µg/mL (≈ 355 µM)
MIC (Human alphaherpesvirus 1 [3]): 4 µg/mL (≈ 17.8 µM)
MIC (Human alphaherpesvirus 2): 0.03 µg/mL (≈ 0.133 µM)
MIC [4]: > 400 µg/mL

NC1=NC(=O)C2N=CN(C[C@H]3C[C@H](O)[C@@H](CO)O3)C2=N1 (stereo not given in full)
MIC (Human alphaherpesvirus 1 [1]): 5 µg/mL (≈ 17.8 µM)
MIC (Human alphaherpesvirus 1 [2]): 12 µg/mL (≈ 42.7 µM)
MIC (Human alphaherpesvirus 1 [3]): 12 µg/mL (≈ 42.7 µM)
MIC (Human alphaherpesvirus 2): 5 µg/mL (≈ 17.8 µM)
MIC [4]: > 400 µg/mL

Nc1ncnc2c1ncn2C[C@H]1C[C@H](O)[C@@H](CO)O1
MIC (Human alphaherpesvirus 1 [1]): 20 µg/mL (≈ 75.4 µM)
MIC (Human alphaherpesvirus 1 [2]): 10 µg/mL (≈ 37.7 µM)
MIC (Human alphaherpesvirus 1 [3]): 8 µg/mL (≈ 30.2 µM)
MIC (Human alphaherpesvirus 2): 6 µg/mL (≈ 22.6 µM)
MIC [4]: > 400 µg/mL

O=c1[nH]c(=O)n([C@H]2C[C@H](O)[C@@H](CO)O2)cc1/C=C/Br [BRIVUDINE]
MIC (Human alphaherpesvirus 1 [1]): 0.007 µg/mL (≈ 0.021 µM)
MIC (Human alphaherpesvirus 1 [2]): 20 µg/mL (≈ 60 µM)
MIC (Human alphaherpesvirus 1 [3]): 30 µg/mL (≈ 90.1 µM)
MIC (Human alphaherpesvirus 2): > 100 µg/mL
MIC [4]: 200 µg/mL (≈ 600 µM)
